Source: paper PMC2905153 (Cell calcium, 2009)

Biological target: CRACM1/Orai1 (Homo sapiens, UniProt Q96D31)
Assay type: cell-based

CRACM1/Orai1, sequence (Q96D31 whole entry): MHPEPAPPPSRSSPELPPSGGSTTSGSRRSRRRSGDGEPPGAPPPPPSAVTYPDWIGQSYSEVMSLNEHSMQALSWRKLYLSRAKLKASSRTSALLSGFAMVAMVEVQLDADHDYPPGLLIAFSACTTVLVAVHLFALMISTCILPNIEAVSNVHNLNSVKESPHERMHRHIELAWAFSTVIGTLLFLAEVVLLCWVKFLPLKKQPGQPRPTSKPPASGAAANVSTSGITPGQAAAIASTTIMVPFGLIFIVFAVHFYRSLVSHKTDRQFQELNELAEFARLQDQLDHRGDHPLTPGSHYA
CRACM1/Orai1, sequence (Q13586 23-685 partner): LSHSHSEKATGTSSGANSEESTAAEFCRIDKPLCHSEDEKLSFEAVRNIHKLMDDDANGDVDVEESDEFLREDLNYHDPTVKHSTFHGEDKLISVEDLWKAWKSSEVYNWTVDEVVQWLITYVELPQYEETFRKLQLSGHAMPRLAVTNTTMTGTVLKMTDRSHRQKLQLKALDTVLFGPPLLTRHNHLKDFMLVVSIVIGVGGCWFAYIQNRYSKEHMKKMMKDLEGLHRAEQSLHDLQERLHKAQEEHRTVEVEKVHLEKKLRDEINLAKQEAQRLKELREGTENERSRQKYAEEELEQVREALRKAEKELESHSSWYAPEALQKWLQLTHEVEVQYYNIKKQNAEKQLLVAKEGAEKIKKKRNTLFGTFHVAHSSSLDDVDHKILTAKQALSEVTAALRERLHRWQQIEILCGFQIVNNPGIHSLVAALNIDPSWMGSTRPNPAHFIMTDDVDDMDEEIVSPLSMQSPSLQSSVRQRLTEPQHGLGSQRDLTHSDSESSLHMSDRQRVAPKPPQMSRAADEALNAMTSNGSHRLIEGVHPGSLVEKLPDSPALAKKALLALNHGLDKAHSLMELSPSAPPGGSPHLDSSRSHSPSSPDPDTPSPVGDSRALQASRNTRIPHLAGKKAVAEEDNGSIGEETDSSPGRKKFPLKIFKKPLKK

Row | Substance | IC50 [nM]
1 | DPB162-AE | 86 ± 21
2 | DPB163-AE | 170 ± 68
